The source made the active and inactive calls. The calls are words filed in the database; no cut-off is given here.
Assays:
[1] = target: T1, Muscarinic acetylcholine receptor M4 (Homo sapiens, UniProt P08173); assay: Positive allosteric modulation of human M4 receptor expressed in CHO cells co-expressing Gqi5 assessed as increase in acetylcholine-induced calcium mobilization; assay type: functional, cell-based
T1 sequence (P08173 whole entry): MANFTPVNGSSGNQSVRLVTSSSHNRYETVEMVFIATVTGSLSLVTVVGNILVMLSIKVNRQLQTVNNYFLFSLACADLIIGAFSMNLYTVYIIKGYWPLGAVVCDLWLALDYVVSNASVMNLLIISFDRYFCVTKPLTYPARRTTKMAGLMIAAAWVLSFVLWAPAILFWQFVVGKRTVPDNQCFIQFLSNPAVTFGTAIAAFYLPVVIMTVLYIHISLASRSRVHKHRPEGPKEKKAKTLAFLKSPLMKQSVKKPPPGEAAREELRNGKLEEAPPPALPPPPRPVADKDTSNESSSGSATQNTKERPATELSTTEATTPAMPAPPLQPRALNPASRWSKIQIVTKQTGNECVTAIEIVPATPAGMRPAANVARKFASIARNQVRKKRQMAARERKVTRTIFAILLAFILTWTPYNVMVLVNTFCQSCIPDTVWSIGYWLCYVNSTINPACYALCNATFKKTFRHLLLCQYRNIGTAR

[2] = target: T2, Muscarinic acetylcholine receptor M4 (Homo sapiens) (UniProt P08173); assay: Positive allosteric modulation of human M4 receptor expressed in CHO cells co-expressing Gqi5 assessed as increase in acetylcholine-induced calcium mobilization relative to acetylcholine; assay type: functional, cell-based
T2 sequence (whole entry): T1 sequence (P08173 whole entry)

Rattus norvegicus = assay: Antipsychotic activity in rat assessed as reversal of amphetamine-induced hyperlocomotion at 30 mg/kg, po; assay type: functional
[3] = Brain to plasma partition coefficient, Kp of the compound in rat; assay type: ADME, cell-free
[4] = Ratio of EC50 for rat M4 receptor to EC50 for human M4 receptor expressed in CHO cells co-expressing Gqi5; assay type: cell-based
[5] = Ratio of unbound brain to plasma concentration in rat; assay type: ADME, cell-free
[6] = target: T3, Muscarinic acetylcholine receptor M1 (Homo sapiens, UniProt P11229); assay: Positive allosteric modulation of human M1 receptor assessed as increase in acetylcholine-induced response; assay type: functional
T3 sequence (P11229 whole entry): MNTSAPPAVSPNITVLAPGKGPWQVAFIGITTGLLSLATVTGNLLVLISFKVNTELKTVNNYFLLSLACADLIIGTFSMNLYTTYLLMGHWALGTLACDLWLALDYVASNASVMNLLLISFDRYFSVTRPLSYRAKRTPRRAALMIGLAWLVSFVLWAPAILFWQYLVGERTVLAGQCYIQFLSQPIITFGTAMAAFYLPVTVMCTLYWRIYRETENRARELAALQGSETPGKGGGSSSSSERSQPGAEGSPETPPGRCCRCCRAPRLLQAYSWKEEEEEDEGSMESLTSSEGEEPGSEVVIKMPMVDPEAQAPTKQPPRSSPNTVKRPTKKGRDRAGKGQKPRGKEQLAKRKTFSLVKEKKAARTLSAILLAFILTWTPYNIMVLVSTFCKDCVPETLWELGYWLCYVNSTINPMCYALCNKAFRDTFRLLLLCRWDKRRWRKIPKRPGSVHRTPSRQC

[7] = target: T4, Muscarinic acetylcholine receptor M2 (Homo sapiens, UniProt P08172); assay: (§1) Positive allosteric modulation of human M2 receptor assessed as increase in acetylcholine-induced response; assay type: functional
T4 sequence (P08172 whole entry): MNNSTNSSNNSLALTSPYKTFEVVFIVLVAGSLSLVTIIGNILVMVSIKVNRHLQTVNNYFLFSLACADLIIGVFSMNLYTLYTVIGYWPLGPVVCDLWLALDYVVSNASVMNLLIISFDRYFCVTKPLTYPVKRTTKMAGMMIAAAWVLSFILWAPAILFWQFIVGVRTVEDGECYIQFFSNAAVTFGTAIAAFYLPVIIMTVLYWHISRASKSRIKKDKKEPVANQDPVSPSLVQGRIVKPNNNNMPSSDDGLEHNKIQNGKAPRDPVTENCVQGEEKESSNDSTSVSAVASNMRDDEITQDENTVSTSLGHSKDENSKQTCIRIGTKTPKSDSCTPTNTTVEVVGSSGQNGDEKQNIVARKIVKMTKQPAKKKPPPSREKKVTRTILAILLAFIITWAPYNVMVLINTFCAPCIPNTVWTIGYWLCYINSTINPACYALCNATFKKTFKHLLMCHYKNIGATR

[8] = target: Muscarinic acetylcholine receptor M3 (Homo sapiens, UniProt P20309); assay: Positive allosteric modulation of human M3 receptor assessed as increase in acetylcholine-induced response; assay type: functional
Chain of Muscarinic acetylcholine receptor M3 (P20309 whole entry): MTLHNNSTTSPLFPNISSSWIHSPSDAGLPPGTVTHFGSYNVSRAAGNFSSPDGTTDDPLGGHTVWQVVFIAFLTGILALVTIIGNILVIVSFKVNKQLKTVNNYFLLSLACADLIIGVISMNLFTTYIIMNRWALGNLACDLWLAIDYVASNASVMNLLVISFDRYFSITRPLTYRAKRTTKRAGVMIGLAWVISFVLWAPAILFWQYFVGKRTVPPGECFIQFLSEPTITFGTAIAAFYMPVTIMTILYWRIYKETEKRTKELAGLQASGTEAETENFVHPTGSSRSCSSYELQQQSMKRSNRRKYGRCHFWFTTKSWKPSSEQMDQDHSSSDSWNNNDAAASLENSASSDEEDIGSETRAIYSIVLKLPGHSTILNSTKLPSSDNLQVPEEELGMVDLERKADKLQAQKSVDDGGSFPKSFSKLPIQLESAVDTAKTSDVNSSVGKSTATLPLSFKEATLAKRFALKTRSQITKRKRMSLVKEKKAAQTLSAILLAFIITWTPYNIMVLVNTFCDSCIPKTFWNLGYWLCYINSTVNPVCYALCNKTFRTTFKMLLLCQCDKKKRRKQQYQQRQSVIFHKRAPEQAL

[9] = target: T5, Muscarinic acetylcholine receptor M5 (Homo sapiens, UniProt P08912); assay: Positive allosteric modulation of human M5 receptor assessed as increase in acetylcholine-induced response; assay type: functional
T5 sequence (P08912 whole entry): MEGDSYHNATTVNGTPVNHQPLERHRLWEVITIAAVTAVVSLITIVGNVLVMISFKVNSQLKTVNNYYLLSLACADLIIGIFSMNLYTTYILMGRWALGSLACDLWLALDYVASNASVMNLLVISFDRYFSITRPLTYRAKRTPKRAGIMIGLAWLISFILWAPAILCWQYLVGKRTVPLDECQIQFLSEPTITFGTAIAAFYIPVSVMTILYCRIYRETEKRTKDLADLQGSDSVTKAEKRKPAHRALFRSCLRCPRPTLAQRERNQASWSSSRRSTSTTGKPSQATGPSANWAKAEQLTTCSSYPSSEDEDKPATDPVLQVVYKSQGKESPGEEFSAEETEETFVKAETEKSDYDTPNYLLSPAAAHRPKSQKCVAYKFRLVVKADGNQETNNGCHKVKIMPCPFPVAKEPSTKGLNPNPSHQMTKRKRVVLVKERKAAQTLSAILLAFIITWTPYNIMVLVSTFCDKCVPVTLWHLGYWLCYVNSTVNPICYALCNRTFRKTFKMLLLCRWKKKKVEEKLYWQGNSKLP

[10] = target: T6, Muscarinic acetylcholine receptor M2 (Homo sapiens) (UniProt P08172); assay: as §1; assay type: functional
T6 sequence (whole entry): T4 sequence (P08172 whole entry)

[11] = Clearance in Sprague-Dawley rat plasma at 0.1 to 1 mg/kg, iv; assay type: ADME, organism-based
[12] = Elimination half life in Sprague-Dawley rat at 0.1 to 1 mg/kg, iv; assay type: ADME, organism-based; settings: in vivo, read-out: beta t1/2 (converted)
[13] = Brain to plasma partition coefficient, Kp of the compound in Sprague-Dawley rat at 0.1 to 0.2 mg/kg, iv measured after 0.25 hrs; assay type: ADME, organism-based
[14] = Ratio of unbound brain to plasma concentration in Sprague-Dawley rat at 0.1 to 0.2 mg/kg, iv measured after 0.25 hrs; assay type: ADME, organism-based; settings: read-out: K(p,uu,brain)
[15] = Aqueous solubility of the compound at pH 7.4; assay type: physicochemical; settings: aqueous medium
[16] = Oral bioavailability in dog at 10 mg/kg; assay type: ADME, organism-based, Canis lupus familiaris; settings: in vivo
[17] = target: T6, Muscarinic acetylcholine receptor M2 (Homo sapiens); assay: Positive allosteric modulation of human M2 receptor assessed as increase in acetylcholine-induced response relative to acetylcholine; assay type: functional

| SMILES | EC50 [1] [nM] | %max [2] [%] | other results |
| --- | --- | --- | --- |
| Cc1nnc2sc(C(=O)N3CC(c4cccs4)C3)c(N)c2c1C | 200 | 78 | – |
| COC1(c2cccc(F)c2)CN(C(=O)c2sc3nnc(C)c(C)c3c2N)C1 | 417 | 36 | – |
| Cc1nnc2sc(C(=O)N3CC(c4cccc(F)c4)C3C)c(N)c2c1C (stereo not given) | 1460 | 45 | – |
| Cc1nnc2sc(C(=O)N3CC(C)(F)C3)c(N)c2c1C | 363 | 98 | – |
| Cc1nnc2sc(C(=O)NCc3ccc(S(=O)(=O)C(F)(F)F)cc3)c(N)c2c1C | – | – | clearance [11]: 1.6 mL/min/kg; half-life [12]: 2.7 h; Kp at 0.25 h [13]: 0.11; Kp uu at 0.25 h [14]: 1.2; solubility [15]: < 0.5 µM |
| Cc1nnc2sc(C(=O)N3CC(O)(c4ccccc4)C3)c(N)c2c1C | 1050 | 30 | – |
| COc1cccc(C2CN(C(=O)c3sc4nnc(C)c(C)c4c3N)C2)c1 | > 10000 | – | – |
| CCCCC1(F)CN(C(=O)c2sc3nnc(C)c(C)c3c2N)C1 | 316 | 85 | – |
| Cc1ccccc1C1CN(C(=O)c2sc3nnc(C)c(C)c3c2N)C1 | 457 | 72 | – |
| Cc1nnc2sc(C(=O)NCc3ccc(S(=O)(=O)C(F)(F)F)cc3)c(N)c2c1C.Cl | – | – | bioavailability [16]: 4.7% |
| COc1ccccc1C1CN(C(=O)c2sc3nnc(C)c(C)c3c2N)C1 | 2290 | 54 | – |
| Cc1nnc2sc(C(=O)N3CC4(CCN(c5cccnc5)C4)C3)c(N)c2c1C | – | 53 to 57 | – |
| Cc1nnc2sc(C(=O)N3CC(F)(c4ccccn4)C3)c(N)c2c1C | 2240 | 78 | – |
| Cc1nnc2sc(C(=O)N3CC(F)(c4cccc(F)c4)C3)c(N)c2c1C | 447 | 67 | – |
| Cc1nnc2sc(C(=O)N3CC(c4ccccc4)C3C)c(N)c2c1C (stereo not given) | 1510 | 45 | – |
| Cc1nnc2sc(C(=O)N3CC(C4CCCCC4)C3)c(N)c2c1C | 178 | 54 | Kp [3]: 8.46; K(p,uu,brain) [5]: 0.71 |
| Cc1nnc2sc(C(=O)N3CC(c4ccccc4F)C3)c(N)c2c1C | 407 | 75 | – |

Now from value to compound, other results behind:

| EC50 [1] [nM] | %max [2] [%] | SMILES | other results |
| --- | --- | --- | --- |
| > 10000 | – | Cc1nnc2sc(C(=O)N3CC(c4ccc(Br)cc4)C3)c(N)c2c1C | – |
| 72 | 65 | Cc1nnc2sc(C(=O)N3CC(c4ccccc4)C3)c(N)c2c1C | Activity (Rattus norvegicus): 32%; Kp [3]: 2.6; Ratio EC50 [4]: 2; K(p,uu,brain) [5]: 2.1; EC50 [6]: > 10000 nM; EC50 [7]: > 10000 nM; EC50 [8]: > 10000 nM; EC50 [9]: > 10000 nM |
| 1100 | 82 | Cc1ccc(C2CN(C(=O)c3sc4nnc(C)c(C)c4c3N)C2)cc1 | – |
| > 10000 | – | Cc1nnc2sc(C(=O)N3CC(c4ccc(Cl)cc4)C3)c(N)c2c1C | – |
| 851 | 83 | Cc1cccc(C2CN(C(=O)c3sc4nnc(C)c(C)c4c3N)C2)c1 | – |
| 151 | 80 | Cc1nnc2sc(C(=O)N3CC(c4ccc(F)cc4)C3)c(N)c2c1C | Kp [3]: 2.3; K(p,uu,brain) [5]: 1.3; Activity [10]: inactive |
| 57 | 83 | Cc1nnc2sc(C(=O)N3CC(c4cccc(F)c4)C3)c(N)c2c1C | Kp [3]: 2.1; K(p,uu,brain) [5]: 0.92; EC50 [7]: 2100 nM; %max [17]: 38% |
| 331 | 94 | COc1ccc(C2CN(C(=O)c3sc4nnc(C)c(C)c4c3N)C2)cc1 | – |
